Reference: US20140030304A1, “Process for the Treatment of Synthetic Textiles with Cationic Biocides” (priority 2011, published 2014)
Like-named read-outs stand apart in the source and are kept apart here.

Test system: Escherichia coli
Experiment: Quick-kill test (AATCC-100) on treated PP textile, Escherichia coli
Assay type: cell-based

Compound | log-reduction / killing, E. coli | log-reduction / killing, E. coli (textile spray-treated with aqueous solution of unformulated biocide (2-3% w), 5 min, positive control) | biocide activity against E. coli (textile spray-treated with aqueous solution of unformulated biocide (2-3% w), after 2 h)
polyhexamethylenbiguanid [PHMB] | showed killing | – | –
CCCCCCCCCCCCCCCC[N+](C)(C)C.[Cl-] [CTAC, cetyltrimethylammonium chloride] | – | 1.5 log | very effective
